Measurements from patent US6833342B2, “Method of deodorizing and/or cleaning carpet using a composition comprising odor control agent” (The Procter & Gamble Company, priority 1999, dated 2004).

Test: Interaction of perfume components with cyclodextrin (CD interaction)
Type: physicochemical
Conditions: perfume component versus cyclodextrin
Description: Hydrophobic perfume ingredients have a tendency to complex with the cyclodextrins. The degree of hydrophobicity of a perfume ingredient can be correlated with its octanol/water partition coefficient P. The octanol/water partition coefficient of a perfume ingredient is the ratio between its equilibrium concentration in octanol and in water. A perfume ingredient with a greater partition coefficient P is considered to be more hydrophobic. Conversely, a perfume ingredient with a smaller partition coefficient P is considered to be more hydrophilic. […].
The following table illustrates the molecular weight property of some of the preferred perfume versus non-preferred perfume components.

| Compound | CD interaction |
| --- | --- |
| CC(C=O)Cc1ccc(C(C)C)cc1 (stereo not shown) [Cymal] | strong |
| CCOC(=O)c1ccccc1C(=O)OCC [Diethyl Phthalate] | weak |
| CC(=O)OC1CC2CC1C1CC=CC21 (stereo not shown) [Flor Acetate] | strong |
| CCC(=O)OC1CC2CC1C1CC=CC21 (stereo not shown) [Frutene] | strong |
| CC1COCc2cc3c(cc21)C(C)(C)C(C)C3(C)C (stereo not shown) [Galaxolide] | weak |
| CCCCCCOC(=O)c1ccccc1O [Hexyl Salicylate] | weak |
| CCCCCCC(C=O)=Cc1ccccc1 [Hexyl cinnamic Aldehyde] | weak |
| CC(=O)C1(C)CC2=C(CCCC2(C)C)CC1C (stereo not shown) [Iso-E Super] | weak |
| CCCCCCCCCCCCCC(=O)OC(C)C [Iso-propyl Myristate] | weak |
| CC(=O)C(C)=C(C)C(C)C(C)(C)C (stereo not shown) [Koavone] | strong |
| CC(C=O)Cc1ccc(C(C)(C)C)cc1 (stereo not shown) [Lilial, p-t-bucinal] | strong |
| CC(C)(O)CCCC1=CCC(C=O)CC1 (stereo not shown) [Lyral] | weak |
| CCCCCC1C(=O)CCC1CC(=O)OC (stereo not shown) [Methyl Dihydro Jasmonate] | weak |
| O=C(Cc1ccccc1)OCCc1ccccc1 [Phenyl-Ethyl-Phenyl Acetate] | weak |
| CC(=O)OC(C)(C)C1CC=C(C)CC1 (stereo not shown) [Terpinyl Acetate] | significant |
| CCC(C)(O)CCCC(C)C (stereo not shown) [Tetrahydrolinalol] | significant |
| CC(=O)OC1CCC(C(C)(C)C)CC1 (stereo not shown) [Vertenex, para-tert-butylcyclohexyl acetate] | strong |
| CC(=O)/C=C/C1C(C)=CCCC1(C)C (stereo not shown) [a-ionone] | strong |
| a-Me Ionone | strong |
